{"source": "the ASAP Discovery antiviral challenge data (2025)", "key": {"[1]": {"details": "mdck_mdr1"}, "[2]": {"assay": "not given", "remark": "listed apart in the source"}, "[3]": {"details": "human; liver_microsomes"}, "[4]": {"details": "mouse; liver_microsomes"}}, "note": "Where “and” joins values, the source holds several entries; their conditions need not be identical. Equal values may be shown once."}
{"smiles": "O=C(Nc1cc(Br)c2c(c1)CNC2)c1cc(F)cc2[nH]ncc12", "values": [{"measurement": "Papp", "setting": "[1]", "result": 3.4, "unit": "×10⁻⁶ cm/s"}, {"measurement": "solubility kinetic", "result": 4, "unit": "µM"}, {"measurement": "logD", "setting": "[2]", "result": 1.8}, {"measurement": "microsomal CLint", "setting": "[3]", "result": 13.6, "unit": "µL/min/mg"}, {"measurement": "microsomal CLint", "setting": "[4]", "result": 145, "unit": "µL/min/mg"}]}
{"smiles": "Cc1cc(CCCOc2c(C)cc(-c3noc(C(F)(F)F)n3)cc2C)on1", "values": [{"measurement": "Papp", "setting": "[1]", "result": 1.42, "unit": "×10⁻⁶ cm/s"}, {"measurement": "solubility kinetic", "result": 18, "unit": "µM"}, {"measurement": "logD", "setting": "[2]", "result": 4.2}, {"measurement": "microsomal CLint", "setting": "[3]", "result": 11.6, "unit": "µL/min/mg"}, {"measurement": "microsomal CLint", "setting": "[4]", "result": 21.5, "unit": "µL/min/mg"}]}
{"smiles": "CNC(=O)c1c[nH]c2ncnc(N[C@H](c3ccc4c(c3)OCCO4)C(C)C)c12", "note": "(racemic)", "values": [{"measurement": "Papp", "setting": "[1]", "result": 16.2, "unit": "×10⁻⁶ cm/s"}, {"measurement": "solubility kinetic", "result": 319, "unit": "µM"}, {"measurement": "logD", "setting": "[2]", "result": 3.6}, {"measurement": "microsomal CLint", "setting": "[3]", "result": 79, "unit": "µL/min/mg"}, {"measurement": "microsomal CLint", "setting": "[4]", "result": 88, "unit": "µL/min/mg"}]}
{"smiles": "O=C(/C=C/c1ccccc1)C(=O)N1CCN(CCc2ccccc2)CC1", "values": [{"measurement": "Papp", "setting": "[1]", "result": 3, "unit": "×10⁻⁶ cm/s"}, {"measurement": "solubility kinetic", "result": 239, "unit": "µM"}, {"measurement": "logD", "setting": "[2]", "result": 3.3}, {"measurement": "microsomal CLint", "setting": "[3]", "result": 167, "unit": "µL/min/mg"}, {"measurement": "microsomal CLint", "setting": "[4]", "result": 181, "unit": "µL/min/mg"}]}
{"smiles": "CC(C)[C@H](Nc1ncnc2[nH]c(-c3cnn(CC(N)=O)c3)cc12)c1ccc2c(c1)S(=O)(=O)CCC2", "note": "(single isomer, unassigned)", "values": [{"measurement": "Papp", "setting": "[1]", "result": "1.98 ×10⁻⁶ cm/s and 0.719 ×10⁻⁶ cm/s"}, {"measurement": "solubility kinetic", "result": "338 µM and 335 µM"}, {"measurement": "logD", "setting": "[2]", "result": "2.1 and 2"}, {"measurement": "microsomal CLint", "setting": "[3]", "result": "240 µL/min/mg and 115 µL/min/mg"}, {"measurement": "microsomal CLint", "setting": "[4]", "result": "39 µL/min/mg and 96 µL/min/mg"}]}
{"smiles": "CC(C)[C@H](Nc1ncnc2[nH]cc(C(=O)NC3CC3)c12)c1ccc2c(c1)S(=O)(=O)CCC2", "note": "(racemic)", "values": [{"measurement": "Papp", "setting": "[1]", "result": 2.46, "unit": "×10⁻⁶ cm/s"}, {"measurement": "solubility kinetic", "result": 257, "unit": "µM"}, {"measurement": "logD", "setting": "[2]", "result": 3.1}, {"measurement": "microsomal CLint", "setting": "[3]", "result": 29, "unit": "µL/min/mg"}, {"measurement": "microsomal CLint", "setting": "[4]", "result": 234, "unit": "µL/min/mg"}]}
{"smiles": "CNC(=O)c1cc2c(N[C@H](c3ccc4c(c3)NC(=O)CO4)C(C)C)ncnc2[nH]1", "note": "(single isomer, unassigned)", "values": [{"measurement": "Papp", "setting": "[1]", "result": 1.21, "unit": "×10⁻⁶ cm/s"}, {"measurement": "solubility kinetic", "result": 380, "unit": "µM"}, {"measurement": "logD", "setting": "[2]", "result": 2.9}, {"measurement": "microsomal CLint", "setting": "[3]", "result": 175, "unit": "µL/min/mg"}, {"measurement": "microsomal CLint", "setting": "[4]", "result": 33, "unit": "µL/min/mg"}]}
{"smiles": "CNC(=O)c1c[nH]c2ncnc(N[C@H](c3ccc4c(c3)S(=O)(=O)CCC4)C(C)C)c12", "note": "(racemic)", "values": [{"measurement": "Papp", "setting": "[1]", "result": 2.23, "unit": "×10⁻⁶ cm/s"}, {"measurement": "solubility kinetic", "result": 390, "unit": "µM"}, {"measurement": "logD", "setting": "[2]", "result": 2.5}, {"measurement": "microsomal CLint", "setting": "[3]", "result": 131, "unit": "µL/min/mg"}, {"measurement": "microsomal CLint", "setting": "[4]", "result": 192, "unit": "µL/min/mg"}]}
{"smiles": "CC(C)[C@H](Nc1ncnc2[nH]c(-c3cnn(CC(=O)N(C)C)c3)cc12)c1ccc2c(c1)OCCO2", "note": "(racemic)", "values": [{"measurement": "Papp", "setting": "[1]", "result": 1.14, "unit": "×10⁻⁶ cm/s"}, {"measurement": "solubility kinetic", "result": 210, "unit": "µM"}, {"measurement": "logD", "setting": "[2]", "result": 2.3}, {"measurement": "microsomal CLint", "setting": "[3]", "result": 142, "unit": "µL/min/mg"}, {"measurement": "microsomal CLint", "setting": "[4]", "result": 59, "unit": "µL/min/mg"}]}
{"smiles": "CN(c1ccc2c(c1)CNC2)[C@H](C(=O)NCC(F)F)c1cc(Cl)cc(C2CC2)c1", "note": "(racemic)", "values": [{"measurement": "Papp", "setting": "[1]", "result": 2.1, "unit": "×10⁻⁶ cm/s"}, {"measurement": "solubility kinetic", "result": 172, "unit": "µM"}, {"measurement": "logD", "setting": "[2]", "result": 1.6}, {"measurement": "microsomal CLint", "setting": "[3]", "result": 17.1, "unit": "µL/min/mg"}, {"measurement": "microsomal CLint", "setting": "[4]", "result": 10.6, "unit": "µL/min/mg"}]}
{"smiles": "CNC(=O)c1cc(Cl)ccc1NS(=O)(=O)c1ccc(Oc2ccccc2Cl)cc1", "values": [{"measurement": "Papp", "setting": "[1]", "result": 4.91, "unit": "×10⁻⁶ cm/s"}, {"measurement": "solubility kinetic", "result": 25, "unit": "µM"}, {"measurement": "logD", "setting": "[2]", "result": 2.4}, {"measurement": "microsomal CLint", "setting": "[3]", "result": 106, "unit": "µL/min/mg"}, {"measurement": "microsomal CLint", "setting": "[4]", "result": 94, "unit": "µL/min/mg"}]}
{"smiles": "CC(C)[C@H](Nc1ncnc2[nH]c(-c3cnn(C)c3C#N)cc12)c1ccc2c(c1)OCCO2", "note": "(racemic)", "values": [{"measurement": "Papp", "setting": "[1]", "result": 4.2, "unit": "×10⁻⁶ cm/s"}, {"measurement": "solubility kinetic", "result": 17, "unit": "µM"}, {"measurement": "logD", "setting": "[2]", "result": 3}, {"measurement": "microsomal CLint", "setting": "[3]", "result": 74, "unit": "µL/min/mg"}, {"measurement": "microsomal CLint", "setting": "[4]", "result": 218, "unit": "µL/min/mg"}]}
{"smiles": "CC(C)[C@H](Nc1ncnc2[nH]c(-c3ccc4cncn4c3)cc12)c1ccc2c(c1)S(=O)(=O)CCC2", "note": "(racemic)", "values": [{"measurement": "Papp", "setting": "[1]", "result": 0.56, "unit": "×10⁻⁶ cm/s"}, {"measurement": "solubility kinetic", "result": 14, "unit": "µM"}, {"measurement": "logD", "setting": "[2]", "result": 4}, {"measurement": "microsomal CLint", "setting": "[3]", "result": 210, "unit": "µL/min/mg"}, {"measurement": "microsomal CLint", "setting": "[4]", "result": 170, "unit": "µL/min/mg"}]}
